The subject of series [1] is cells. Kind of series: Effect of physical foaming (nitrogen gas/compressed air) on cell viability. In kind it is cell-based. The procedure: Effect of Physical Foaming on Cell Viability. Cells (10^5 cells/mL) were suspended in media and treated with the precursor solution used in fabrication of superporous hydrogels. […] The precursor solution was then exposed to UV for 3.5 minutes. In one treatment group nitrogen gas/compressed air was applied to the top of the cells at 200 psi for 2 minutes at a flow rate of 4000 mL/minute. In a second treatment group, nitrogen gas/compressed air was applied from below the cells suspended in the Buchner funnel at 200 psi for 2 minutes at a flow rate of 4000 mL/minute. Thereafter, each of the groups was exposed to UV at 5 mW/cm^2 for 3 minutes, washed twice with DPBS containing Ca and Mg, resuspended in fresh media and transferred to a 48-well plate. Cells were incubated for 24, 48 and 72 hours and cell viability was determined via the MTS test and LIVE/DEAD cell assay.

The test system of series [2] is cells. How it is done:
Effect of Hydrogel Precursor Solution Components on Cell Viability. Cells (10^5 cells/mL) were plated on 48-well plates and were allowed to adhere to the plates overnight. […] The pH of one solution was adjusted to 5 (using […]) and that of the other solution was adjusted to 8 (using 1 M NaOH). […] The treatment groups were compared to untreated controls where cells were incubated with media. […] To this, 30 μL of MTS test reagent was added. Cells were then incubated with MTS test reagent for 3 hours and absorbance recorded at 490 nm on a UV plate reader.
(§1) Specifically, cells were treated with 0.05% to 1.5% (w/v) APS at pH 5 for 10 minutes or 0.05% to 1.5% (w/v) APS at pH 8 for 24, 48, or 72 hours and compared to controls in a MTS test and LIVE/DEAD cell assay. Similarly, cells were treated with 0.05% to 0.90% (w/v) TEMED at pH 5 for 10 minutes or 0.05% to 0.90% (w/v) TEMED at pH 8 for 24, 48, or 72 hours and compared to controls in a MTS test and LIVE/DEAD cell assay. Likewise, cells were treated with 0.05% to 1.0% (w/v) F-127 at pH 5 for 10 minutes or 0.05% to 1.0% (w/v) F-127 at pH 8 for 24, 48, or 72 hours and compared to controls in a MTS test and LIVE/DEAD cell assay.
(§2) Treatment groups were compared to untreated controls in both a MTS test and LIVE/DEAD cell assay.
(§3) The suspension in the test tube was allowed to stand for 5 minutes. Cells were treated with the supernatant for 10 minutes or 24, 48, or 72 hours. The saturated solution was aspirated from the wells, cells were washed and analyzed with the MTS test and LIVE/DEAD cell assay.
(§4) The effects of precursor solution constituents on cell viability were analyzed over a 72 hour period. The experiments were designed based on the conditions that the cells would be exposed to during the fabrication of superporous hydrogels; i.e., exposure to each constituent of SPH individually at pH of 5 for 10 minutes and thereafter for 24, 48 and 72 hours at pH of 8. […] 96 AQUEOUS ONE® solution Cell Proliferation Assay (MTS) and LIVE/DEAD cell assay were used to determine the effect of each of the constituents on cell viability.

Series [3] relates to cells. Kind of series: Effect of precursor solution components, LIVE/DEAD cell assay. The procedure: LIVE/DEAD cell assay was used to visualize live and dead cells (Gaugain, et al. (1978) Biochemistry 17:5071-8; Gaugain, et al. (1978) Biochemistry 17:5078-88). […] To the resuspended cells was added 100 μL of calcein-AM/ethidium homodimer stain (stock solutions of the dyes were prepared as per manufacturer's protocol-Molecular Probes). Cells were incubated for 30 minutes and images were captured of both treatment and control groups using a fluorescence microscope.
as §1, §2, §3, §4

Series [4] concerns cells. As to conditions: cells in media at pH 5, 10 minutes, MTS and LIVE/DEAD. How it is done:
A third group was the untreated controls. At the end of 10 minutes, the cells were washed, resuspended in fresh media, and analyzed with the MTS test reagent and LIVE/DEAD cell assay.

A further series has as its system gingival fibroblasts. As to conditions: cited from earlier work.

Where two headings read alike, the source gives them in different places.

As usually defined, the cell viability is the share of living cells, or the viability signal relative to a control. The low end stands for more harm to the cells, the high end for less harm to the cells.

In the case of `N#N` [nitrogen gas under pressure], in the series on cells [1] (cells washed and plated for 24, 48 and 72 hours after foaming), the “cell death over 72 hours” value was “cell death observed over 72 hours”. For the same compound, the “cell death compared to untreated controls” value in the series with cells [1] (determined immediately after treating cells) is given as “approximately 20%”.

Regarding `CN(C)CCN(C)C` [TEMED, N,N,N′,N′-tetramethylethylenediamine], the viable cells in the series on cells [2] (0.90% TEMED, 10 minutes, pH 5, MTS) was 108.59±1.23%; with cells [2] (0.90% TEMED, 24 hours, pH 8, MTS), 30.63±5.51%; with cells [2] (0.90% TEMED, 48 hours, pH 8, MTS), 20.41±6.92%; in the series on cells [2] (0.90% TEMED, 72 hours, pH 8, MTS) it was 18.53±12.82%. In addition, the toxicity result was “no significant toxicity” with cells [2] (TEMED 0.05% to 0.90%, 10 minutes); “toxicity observed at all concentrations” with cells [2] (TEMED all concentrations, 24, 48 and 72 hours). Moreover, the live/dead cells entry in the series with cells [3] (TEMED all concentrations, 10 minutes) was “cells were alive”; with cells [3] (TEMED, longer time periods) it was “they were dead”.

Regarding `[Na+].[OH-]` [sodium hydroxide], the “cell death on sudden pH change from acidic to alkaline” value in the series with cells [4] is given as “a significant amount of cell death”.

Consider `O=C(O)CC(O)(CC(=O)O)C(=O)O` [citric acid], for which the cell death entry in the series on gingival fibroblasts (47.6 mM (pH 2.3) in water, within three minutes) is listed as “complete cell death”. The “inhibition of attachment and spreading of fibroblasts on Type I collagen” value in the series on gingival fibroblasts (medium containing 11.9 mM) is 22%. Moreover, the “inhibition of attachment and spreading of fibroblasts on culture plates” value in the series on gingival fibroblasts (medium containing 11.9 mM) is given as 58%. The “inhibition of protein synthesis” value with gingival fibroblasts (within three hours of incubation) is listed as 0.28%. For the same compound, the viable cells result in the series with cells [2] (10 min, 2.4 % (w/v), pH 5) is given as “about 99.7±11.6%”; in the series with cells [2] (24 h, 2.4 % (w/v), pH 8) it was 28.95±5.70%; in the series with cells [2] (48 h, 2.4 % (w/v), pH 8), 15.81±1.80%; with cells [2] (72 h, 2.4 % (w/v), pH 8), 16.20±6.81%.

The compound `N.N.O=S(=O)(O)OOS(=O)(=O)O` [APS, Ammonium persulphate] gave a cell viability in the series with cells [2] (0.05% APS, MTS) of 60%. Further, the viable cells with cells [2] (0.70% APS, 10 minutes, pH 5, MTS) is listed as 21.25±9.6%; in the series with cells [2] (0.70% APS, 24 hours, pH 8, MTS) it was 16.83±4.8%; in the series on cells [2] (0.70% APS, 48 hours, pH 8, MTS) it was 14.8±6.8%; with cells [2] (0.70% APS, 72 hours, pH 8, MTS), 11.63±0.3%. The toxicity result with cells [2] (APS 0.05% to 1.5%, 10 minutes, 24, 48 and 72 hours) was “toxic to cells at all concentrations tested”. Besides, the live/dead cells entry in the series with cells [3] (0.05% APS) was “the cells were dead”; in the series on cells [3] (APS, end of each incubation period), “dead cells at the end of each of the incubation periods”.

The values are drawn from patent publication US8414879B2, “Superporous hydrogel with cells encapsulated therein and method for producing the same” (The Board of Trustees of the University of Illinois, priority 2008, dated 2013).
